These results are taken from ChEMBL document CHEMBL3259748, “Synthesis, characterization, and PK/PD studies of a series of spirocyclic pyranochromene BACE1 inhibitors” (Bioorg Med Chem Lett, 2014).

What is called Papp is the rate of passage across a membrane or cell layer, normalised by area and donor concentration.

SMILES strings stand for the structures.

Series [1] in a line: Clearance in human liver microsomes at 1 uM after 20 mins in presence of NADPH. It counts as ADME. A general note: Liver microsomes are a subcellular fraction often used to study metabolism.
The next series has as its system MDR1 (human). Briefly: Apparent permeability of the compound across pig LLC-PK1 cells expressing human MDR1. It counts as ADME, cell-based, Sus scrofa.

For the molecule `NC1=N[C@@]2(CO1)c1cc(-c3cncc(Cl)c3)ccc1O[C@H]1COCC[C@@H]12`, the CLhep predicted at 1 µM in series [1] was 15 mL/min/kg. Moreover, the Papp with MDR1 (human) stood at 4.7 ×10⁻⁶ cm/s.
For `C[C@]12COCC[C@@H]1[C@]1(COC(N)=N1)c1cc(-c3cncc(Cl)c3)ccc1O2` (racemic), in that order: 15 mL/min/kg and 10 ×10⁻⁶ cm/s.
Take `NC1=N[C@@]2(CO1)c1cc(-c3cc(F)cc(Cl)c3)ccc1O[C@@H]1COCC[C@H]12`: the CLhep predicted at 1 µM in series [1] is 10 mL/min/kg. For the same molecule, the apparent permeability coefficient (Papp) with MDR1 (human) turned out to be 11 ×10⁻⁶ cm/s.
For `NC1=N[C@@]2(CO1)c1cc(-c3cncc(Cl)c3)ccc1O[C@@H]1COCC[C@H]12`, in that order: 13 mL/min/kg and 14 ×10⁻⁶ cm/s.
On to `NC1=N[C@@]2(CO1)c1cc(-c3cccnc3F)ccc1O[C@@H]1COCC[C@H]12`, for which the CLhep predicted at 1 µM in series [1] was 6 mL/min/kg. Moreover, the Papp in the series with MDR1 (human) worked out at 10 ×10⁻⁶ cm/s.
On to `N#Cc1cccc(-c2ccc3c(c2)[C@@]2(COC(N)=N2)[C@@H]2CCOC[C@H]2O3)c1`, for which the CLhep predicted at 1 µM in series [1] is 8 mL/min/kg. Besides, the Papp in the series with MDR1 (human) amounted to 11 ×10⁻⁶ cm/s.
As for `NC1=N[C@@]2(CO1)c1cc(-c3cncc(F)c3)ccc1O[C@@H]1COCC[C@H]12`, the CLhep predicted at 1 µM in series [1] was 9 mL/min/kg. The Papp in the series on MDR1 (human) worked out at 15 ×10⁻⁶ cm/s.
